Source: patent US9371292B2, “Quinazoline derivative, preparation method therefor, intermediate, composition and application thereof” (SHANGHAI PHARMACEUTICALS HOLDINGS CO., LTD., priority 2011, dated 2016)
Where a name gives a salt, the structure may show the parent alone. Read-outs that look alike come from different tables or passages of the source.

Key:
HER2 = HER2 (Homo sapiens, UniProt P04626); experiment: Mobility shift assay, kinase inhibition (HER2); assay type: biochemical; conditions: read-out: Kinase inhibitory activity IC50 (nM) HER2
HER2, sequence (P04626 23-1255): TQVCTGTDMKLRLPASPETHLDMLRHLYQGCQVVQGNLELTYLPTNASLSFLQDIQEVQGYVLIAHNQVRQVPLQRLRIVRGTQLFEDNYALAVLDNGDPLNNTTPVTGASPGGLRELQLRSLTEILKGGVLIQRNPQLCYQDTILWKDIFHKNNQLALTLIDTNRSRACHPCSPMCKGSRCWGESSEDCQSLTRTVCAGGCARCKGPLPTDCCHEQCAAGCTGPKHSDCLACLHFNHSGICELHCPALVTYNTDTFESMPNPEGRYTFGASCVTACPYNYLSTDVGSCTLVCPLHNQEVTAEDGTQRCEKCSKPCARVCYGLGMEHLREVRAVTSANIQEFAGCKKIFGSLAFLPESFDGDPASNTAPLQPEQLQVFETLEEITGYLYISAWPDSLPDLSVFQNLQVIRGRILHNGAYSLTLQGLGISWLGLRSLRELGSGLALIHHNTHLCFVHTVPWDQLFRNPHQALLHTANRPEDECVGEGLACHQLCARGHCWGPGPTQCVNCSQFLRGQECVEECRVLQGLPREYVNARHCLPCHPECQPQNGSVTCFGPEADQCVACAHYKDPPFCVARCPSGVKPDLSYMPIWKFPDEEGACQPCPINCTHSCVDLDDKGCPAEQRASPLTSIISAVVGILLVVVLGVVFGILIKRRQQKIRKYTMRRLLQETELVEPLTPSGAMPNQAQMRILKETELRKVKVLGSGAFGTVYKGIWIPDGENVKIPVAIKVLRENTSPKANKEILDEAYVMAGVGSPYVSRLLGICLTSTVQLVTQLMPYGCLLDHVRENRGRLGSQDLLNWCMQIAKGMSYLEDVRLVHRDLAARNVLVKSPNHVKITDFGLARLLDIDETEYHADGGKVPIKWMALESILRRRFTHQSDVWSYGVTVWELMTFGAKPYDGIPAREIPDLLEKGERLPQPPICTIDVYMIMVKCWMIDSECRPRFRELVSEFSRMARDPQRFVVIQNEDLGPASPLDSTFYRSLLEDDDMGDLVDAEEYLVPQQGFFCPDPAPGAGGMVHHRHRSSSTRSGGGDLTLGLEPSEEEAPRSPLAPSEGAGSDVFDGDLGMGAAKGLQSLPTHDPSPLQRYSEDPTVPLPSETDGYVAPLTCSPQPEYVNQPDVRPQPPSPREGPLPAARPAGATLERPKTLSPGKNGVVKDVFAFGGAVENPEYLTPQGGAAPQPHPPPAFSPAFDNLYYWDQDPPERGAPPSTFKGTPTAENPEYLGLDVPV
Experimental: (§1) Enzyme activity assay was test by the Mobility shift assay method (Expert Opin Drug Discov. 2008, 3(6): 607-621). A 10 mM stock solution of the test compound in DMSO were made after weighing. According to the required concentration, proper quantity of the 10 mM stock solution was dissolved in water to get a work solution with a concentration 5 times the final concentration. And various kinases, EGFR, HER2, HER4 were dissolved into a reaction buffer with a concentration 1.25 times the required concentration (62.5 mM HEPES, pH7.5, 0.001875% Brij-35, 12.5 mM MgCl2, 2.5 mM DTT), and get a enzyme work solution with a concentration 2.5 times the final concentration. At the same time, ATP and FAM tag peptide substrates will be dissolved in the reaction buffer with a concentration of 1.25× to get a substrate and ATP working solution with a concentration 2.5 times the required concentration. Then 5 μl the work solution of compound is added to 384 wells test plate, 5 μl 250 mM EDTA is added to a blank control, the same volume of work solution without drug is added to the negative control (Max). 10 μl Enzyme work solution is added at the same time. After mix gently and hatch for 10 minutes at room temperature, 10 μl substrate and ATP work solution are added to each well. The test plates are placed at 28 degrees for 60 mins. Then 25 μl suspending liquid is added into each reaction well (100 mM HEPES, pH7.5, 0.015% Brij-35, 0.2% Coating Reagent#3, 50 mM EDTA) to quench the enzyme reaction. Finally, the plate is put on Caliper EZ reader to collect conversion rate of the substrate in each well (The phosphorylation ratio of the substrate caused by the kinases). Based on the data described above, the kinase inhibitory of the compound can be calculated as follows: % inh=(Max−conversion)/(Max−Min)×100, wherein % inh is percent inhibition, Max is the conversion ratio of the substrate in negative control well, min is the conversion ratio of the substrate in blank control well, conversion is the conversion rate of substrate in each well with various concentration of the test compound. The % inh value of each concentration of the test compound would be analyzed in Xlift to obtain the corresponding IC50 value, the curve fitting formula is: Y=Bottom+(Top−Bottom)/(1+10^((Log IC50−X)*Hillslope))

EGFR = EGFR (Homo sapiens, UniProt P00533); experiment: Mobility shift assay, kinase inhibition (EGFR); assay type: biochemical; conditions: read-out: Kinase inhibitory activity IC50 (nM) EGFR
EGFR, sequence (P00533 25-1210): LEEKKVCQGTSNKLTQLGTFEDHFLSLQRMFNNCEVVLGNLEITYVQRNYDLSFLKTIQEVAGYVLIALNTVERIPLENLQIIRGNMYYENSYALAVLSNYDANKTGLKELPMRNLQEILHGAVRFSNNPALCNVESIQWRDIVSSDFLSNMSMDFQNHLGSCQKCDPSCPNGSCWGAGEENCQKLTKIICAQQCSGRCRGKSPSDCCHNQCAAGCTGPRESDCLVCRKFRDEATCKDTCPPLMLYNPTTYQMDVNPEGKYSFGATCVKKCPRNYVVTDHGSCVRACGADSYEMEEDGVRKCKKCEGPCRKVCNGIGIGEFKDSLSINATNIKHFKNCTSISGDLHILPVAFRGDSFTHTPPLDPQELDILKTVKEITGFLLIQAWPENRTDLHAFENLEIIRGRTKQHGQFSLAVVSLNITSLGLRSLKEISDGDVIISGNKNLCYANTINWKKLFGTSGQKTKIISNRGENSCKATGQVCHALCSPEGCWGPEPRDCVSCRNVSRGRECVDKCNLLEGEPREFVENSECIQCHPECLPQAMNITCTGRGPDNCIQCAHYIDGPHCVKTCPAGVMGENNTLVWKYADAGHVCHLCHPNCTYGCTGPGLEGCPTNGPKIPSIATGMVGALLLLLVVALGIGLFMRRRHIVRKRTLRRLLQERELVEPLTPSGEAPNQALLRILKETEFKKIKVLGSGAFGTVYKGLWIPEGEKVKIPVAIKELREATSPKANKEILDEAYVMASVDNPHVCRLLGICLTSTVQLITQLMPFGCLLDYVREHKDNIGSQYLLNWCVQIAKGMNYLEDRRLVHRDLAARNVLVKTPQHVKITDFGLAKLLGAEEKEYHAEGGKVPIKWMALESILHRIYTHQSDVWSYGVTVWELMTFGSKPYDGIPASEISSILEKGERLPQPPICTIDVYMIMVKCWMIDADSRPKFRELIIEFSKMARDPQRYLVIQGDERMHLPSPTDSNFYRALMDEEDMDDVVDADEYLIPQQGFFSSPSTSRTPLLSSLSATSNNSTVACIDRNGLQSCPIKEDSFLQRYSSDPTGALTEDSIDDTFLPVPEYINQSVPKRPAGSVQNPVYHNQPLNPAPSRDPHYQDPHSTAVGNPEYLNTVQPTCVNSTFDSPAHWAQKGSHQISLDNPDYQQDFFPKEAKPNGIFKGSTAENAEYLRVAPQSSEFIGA
Experimental: as §1

HER4 = HER4 (Homo sapiens, UniProt Q15303); experiment: Mobility shift assay, kinase inhibition (HER4); assay type: biochemical; conditions: read-out: Kinase inhibitory activity IC50 (nM) HER4
HER4, sequence (Q15303 26-1308): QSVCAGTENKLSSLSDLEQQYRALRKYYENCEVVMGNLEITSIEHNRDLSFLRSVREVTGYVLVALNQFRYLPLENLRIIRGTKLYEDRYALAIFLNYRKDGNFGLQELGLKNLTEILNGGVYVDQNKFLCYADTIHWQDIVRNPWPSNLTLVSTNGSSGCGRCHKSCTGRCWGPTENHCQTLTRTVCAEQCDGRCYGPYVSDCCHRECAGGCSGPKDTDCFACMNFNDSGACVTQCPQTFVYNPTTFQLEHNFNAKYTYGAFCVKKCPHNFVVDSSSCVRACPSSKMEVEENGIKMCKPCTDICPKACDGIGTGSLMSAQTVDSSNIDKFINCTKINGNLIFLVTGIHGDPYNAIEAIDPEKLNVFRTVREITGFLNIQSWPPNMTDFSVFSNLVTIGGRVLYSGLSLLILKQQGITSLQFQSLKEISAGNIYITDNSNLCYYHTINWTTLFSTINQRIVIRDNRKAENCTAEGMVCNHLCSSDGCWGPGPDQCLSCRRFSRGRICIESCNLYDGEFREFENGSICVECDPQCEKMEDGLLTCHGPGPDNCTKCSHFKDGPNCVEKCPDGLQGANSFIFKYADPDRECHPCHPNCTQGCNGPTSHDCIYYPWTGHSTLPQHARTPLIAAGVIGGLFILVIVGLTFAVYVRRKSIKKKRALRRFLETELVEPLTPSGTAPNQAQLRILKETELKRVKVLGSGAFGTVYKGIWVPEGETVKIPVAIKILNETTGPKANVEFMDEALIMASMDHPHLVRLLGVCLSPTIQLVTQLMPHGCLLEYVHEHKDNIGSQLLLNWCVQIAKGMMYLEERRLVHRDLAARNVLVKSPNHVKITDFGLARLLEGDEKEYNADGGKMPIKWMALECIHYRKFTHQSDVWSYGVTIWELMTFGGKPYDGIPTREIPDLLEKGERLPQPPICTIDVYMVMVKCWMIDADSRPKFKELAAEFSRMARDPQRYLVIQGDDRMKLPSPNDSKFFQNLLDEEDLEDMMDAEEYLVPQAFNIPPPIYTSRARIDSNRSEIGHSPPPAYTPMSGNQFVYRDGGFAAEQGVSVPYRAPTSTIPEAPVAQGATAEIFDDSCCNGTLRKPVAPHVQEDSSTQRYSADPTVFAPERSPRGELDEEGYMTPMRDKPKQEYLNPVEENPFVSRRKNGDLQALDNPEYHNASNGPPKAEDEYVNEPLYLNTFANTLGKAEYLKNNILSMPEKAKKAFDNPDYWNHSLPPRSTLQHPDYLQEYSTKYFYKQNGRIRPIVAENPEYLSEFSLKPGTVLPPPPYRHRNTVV
Experimental: as §1

NCI-H1975 = assay type: in vivo, BALB/c nude mice; conditions: for Tolerability in mice: mouse, in vivo, po; for Tumor volume: 60 mg/kg PO QD
Text: Preparation method: dissolve the test compound in 20% PEG400+3% Tween80 to obtain a required concentration; dissolve the control group in 0.5% CMC+0.4% Tween80 to obtain a required concentration.
BALB/c nude mice (Shanghai xipuer-bikai experimental animals company), weight 16-18 g, female. BD matrigel, NCI-H1975 cell (ATCC)
Cells in logarithmic phase were collected. The ratio of medium to matrigel was 1:1. The concentration of cell was adjust to 3×10^7/ml and put into a ice box, then inoculated in each nude mice subcutaneously with 0.2 ml. Then carry out intragastric administration once a day for 5 days and stop administration for 2 days. Administrate for 9 days in total. Dosages are as follows:
The size and weight were measured. The length and width of tumors were measured individually with microcalipers. Tumor volume (V) and relative tumor volume (RTV) was calculated as formula. Day 12, all the nude mouse were killed and the tumors were taken out and pictured. The individual as follows: RTV=Vt/V0, where Vt is and V0 is. and the calculation formula is T/C (%)=mean RTV of the treated group/mean RTV of the control group×100%.
(1) Tumor volume (Tumor Volume, TV), calculation formula: […], wherein a and b presents length and width respectively.
(2) Relative Tumor Volume (RTV), calculation formula: RTV=Vt/V0.
Wherein TV0 is the volume on the day of initial treatment, TVt is the volume on each day of measurement.
(3) The relative tumor increment rate T/C (%), calculation formula: […]
TRTV: treated group RTV; CRTV: negative control group RTV.
Therapeutic effect of compound was expressed in terms of T/C %.

[1] = tested on: NCI-H1975 L858R T790M cell; experiment: Proliferation inhibition, H1975 cells (CellTiter-Glo); assay type: cell-based; conditions: Homo sapiens, 48 hours
Experimental: (§2) This example is to determine the proliferation inhibitory activity against wide type of high expression cell lines A431 of EGFR and mutant cell lines NCI-H1975^L858RT790M, the proliferation inhibitory activity in cell-based level of compound is expressed by IC50. The test method is as follows: both cell lines are purchased from American type culture collection (ATCC). The cells are seeded in a white and opaque 384-well culture plate with a proper concentration (A431: 20000 cells/ml medium; H1975: 15000 cells/ml medium), cultured at 37° C. with 5% CO2 for 24 hrs, a series of medicine with gradient concentration is added, generally 10 concentrations, cultured for another 48 hours under the previous conditions. The assays of the proliferation inhibitory activity against the A431 and H1975 cell of the test compounds are performed by the CellTiter-Glo Luminescent Cell Viability Assay and calculate the proliferation inhibitory activity of compound with different concentrations. CellTiter-Glo Luminescent Cell Viability Assay is purchased from Promega. Fit the data of proliferation inhibitory activity against A431 and H1975 of compounds with different concentrations with 4-parameter equation.

EGFR tyrosine kinase = target: T1, EGFR tyrosine kinase (Homo sapiens, UniProt P00533); experiment: HTRF assay, inhibition of EGFR tyrosine kinase; assay type: biochemical; conditions: HTRF method
T1 construct: purchased Sigma Aldrich
T1 sequence (P00533 25-1210): as the sequence (P00533 25-1210) above
Experimental: The activity of inhibitory against the kinase of the test compound is expressed by IC50. The assays are performed by Homogeneous time-resolved fluorescence (HTRF) method which is as follows: a series of synthesized analogues with gradient concentration are incubated for 5 minutes in enzymatic solution with specific concentration (for EGFR) at room temperature. Then proper amount of substrate and ATP are added into the reaction mixture to start the enzyme reaction. The assays of the specific concentration of compound is measured by Flexstation III of Molecular device company after the stop buffer and detecting liquid are added to the enzyme reaction system and hatch at room temperature for 1 hour. And the activity of inhibitory against the kinase of the test compound with different concentration will be calculated, then according to the 4-parameter equation, fit the inhibitory activity of the test compound with different concentration to get the IC50. EGFR is purchased from Sigma Aldrich. The HTRF KinEASE-TK is purchased from Cisbio Bioassays. ATP is purchased from Sigma Aldrich.

A431 cell = experiment: Proliferation inhibition, A431 cells (CellTiter-Glo); assay type: cell-based; conditions: Homo sapiens, A-431, 48 hours
Experimental: as §2

COc1cc2ncnc(Nc3ccc(F)c(Cl)c3)c2cc1NC(=O)C(F)=CCN(C)C (mixture of isomers) [Compound 1, N-(4-((3-chloro-4-fluorophenyl)amino)-7-methoxyquinazolin-6-yl)-4-(dimethylamino)-2-fluorobut-2-enamide]
IC50 (HER2): 168 nM | IC50 (EGFR): 1.7 nM | IC50 (HER4): 21 nM

COCCOc1cc2ncnc(Nc3ccc(F)c(Cl)c3)c2cc1NC(=O)C(F)=CCN(C)C (mixture of isomers) [Compound 3-1, N-(4-((3-chloro-4-fluorophenyl)amino)-7-(2-methoxyethoxy)quinazolin-6-yl)-4-(dimethylamino)-2-fluorobut-2-enamide]
IC50 (EGFR): 2.5 nM

COc1cc2ncnc(Nc3ccc(F)c(Cl)c3)c2cc1NC(=O)/C(F)=C/CN(C)C [2-1(hydrochloride), (Z)—N-(4-((3-chloro-4-fluorophenyl)amino)-7-methoxyquinazolin-6-yl)-4-(dimethylamino)-2-fluorobut-2-enamide]
Inhibition of growth of NCI-H1975 in nude mice (in words) (NCI-H1975; NCI-H1975 nude mice, 60 mpk, 60 mg/kg): significantly inhibit the growth | Tolerability in mice (NCI-H1975; 60 mg/kg): well tolerated

COc1cc2ncnc(Nc3ccc(F)c(Cl)c3)c2cc1NC(=O)/C(F)=C\CN(C)C [Compound 2-2, (E)-N-(4-((3-chloro-4-fluorophenyl)amino)-7-methoxyquinazolin-6-yl)-4-(dimethylamino)-2-fluorobut-2-enamide]
IC50 (HER2): 369 nM | IC50 (EGFR): 4.5 nM | IC50 (HER4): 63 nM

COc1cc2ncnc(Nc3ccc(OCc4ccccn4)c(Cl)c3)c2cc1NC(=O)/C(F)=C/CN(C)C [Compound 4-1, (Z)—N-(4-((3-chloro-4-(pyridin-2-ylmethoxy)phenyl)amino)-7-methoxyquinazolin-6-yl)-4-(dimethylamino)-2-fluorobut-2-enamide]
IC50 (HER2): 62 nM

COc1cc2ncnc(Nc3ccc(OCc4ccccn4)c(Cl)c3)c2cc1NC(=O)/C(F)=C\CN(C)C [Compound 4-2, (E)-N-(4-((3-chloro-4-(pyridin-2-ylmethoxy)phenyl)amino)-7-methoxyquinazolin-6-yl)-4-(dimethylamino)-2-fluorobut-2-enamide]
IC50 (HER2): 64 nM | IC50 (EGFR): 9.5 nM | IC50 (HER4): 206 nM

C=C(F)C(=O)Nc1cc2c(Nc3ccc(F)c(Cl)c3)ncnc2cc1OCCCN1CCOCC1 [Compound 5, N-(4-((3-chloro-4-fluorophenyl)amino)-7-(3-morpholinopropoxy)quinazolin-6-yl)-2-fluoroacrylamide]
Tumor volume (NCI-H1975; Day 0, NCI-H1975 nude mice): 177 ± 17 mm^3 | Tumor volume (NCI-H1975; Day 2, NCI-H1975 nude mice): 160 ± 11 mm^3 | Tumor volume (NCI-H1975; Day 4, NCI-H1975 nude mice): 164 ± 27 mm^3 | Tumor volume (NCI-H1975; Day 7, NCI-H1975 nude mice): 147 ± 20 mm^3 | Tumor volume (NCI-H1975; Day 9, NCI-H1975 nude mice): 151 ± 27 mm^3 | Tumor volume (NCI-H1975; Day 11, NCI-H1975 nude mice): 131 ± 33 mm^3 | Tolerability in mice (NCI-H1975; 60 mg/kg): well tolerated | IC50 [1]: 2500 nM | IC50 (EGFR tyrosine kinase): 0.39 nM | IC50 (A431 cell): 3200 nM

C=C(F)C(=O)Nc1cc2c(Nc3ccc(F)c(Cl)c3F)ncnc2cc1OCC1CCN(C)CC1 [Compound 6, N-(4-((3-chloro-2,4-difluorophenyl)amino)-7-((1-methylpiperidin-4-yl)methoxy)quinazolin-6-yl)-2-fluoroacrylamide]
Tumor volume (NCI-H1975; Day 0, NCI-H1975 nude mice): 179 ± 13 mm^3 | Tumor volume (NCI-H1975; Day 2, NCI-H1975 nude mice): 154 ± 35 mm^3 | Tumor volume (NCI-H1975; Day 4, NCI-H1975 nude mice): 113 ± 26 mm^3 | Tumor volume (NCI-H1975; Day 7, NCI-H1975 nude mice): 66 ± 16 mm^3 | Tumor volume (NCI-H1975; Day 9, NCI-H1975 nude mice): 58 ± 11 mm^3 | Tumor volume (NCI-H1975; Day 11, NCI-H1975 nude mice): 57 ± 11 mm^3 | Tolerability in mice (NCI-H1975; 60 mg/kg): well tolerated | IC50 [1]: 1200 nM | IC50 (EGFR tyrosine kinase): 0.54 nM | IC50 (A431 cell): 500 nM

C=C(F)C(=O)Nc1cc2c(Nc3cccc(C(F)(F)F)c3)ncnc2cc1OCC [Compound 55, N-[7-ethoxy-4-(3-trifluoromethyl-phenylamino)-quinazolin-6-yl]-2-fluoro-acrylamide]
IC50 [1]: 13000 nM | IC50 (EGFR tyrosine kinase): 0.97 nM | IC50 (A431 cell): 22000 nM

C=C(F)C(=O)Nc1cc2c(Nc3ccc(F)c(Cl)c3)ncnc2cc1OC [Compound 56, N-[4-(3-chloro-4-fluoro-phenylamino)-7-methoxy-quinazolin-6-yl]-2-fluoro-acrylamide]
IC50 [1]: 510 nM | IC50 (EGFR tyrosine kinase): 0.22 nM | IC50 (A431 cell): 2800 nM

C=C(Cl)C(=O)Nc1cc2c(Nc3ccc(F)c(Cl)c3)ncnc2cc1OC [Compound 57, N-[4-(3-chloro-4-fluoro-phenylamino)-7-methoxy-quinazolin-6-yl]-2-chloro-acrylamide]
IC50 [1]: 1300 nM | IC50 (EGFR tyrosine kinase): 0.13 nM | IC50 (A431 cell): 7500 nM

C=C(Cl)C(=O)Nc1cc2c(Nc3cccc(C(F)(F)F)c3)ncnc2cc1OCC [Compound 58, N-[7-ethoxy-4-(3-trifluoromethyl-phenylamino)-quinazolin-6-yl]-2-chloro-acrylamide]
IC50 [1]: 8300 nM | IC50 (EGFR tyrosine kinase): 1 nM | IC50 (A431 cell): 27000 nM

C=C(Cl)C(=O)Nc1cc2c(Nc3cccc(Br)c3)ncnc2cc1OCC [Compound 59, N-[4-(3-bromo-phenylamino)-7-ethoxy-quinazolin-6-yl]-2-chloro-acrylamide]
IC50 [1]: 11000 nM | IC50 (EGFR tyrosine kinase): 0.63 nM | IC50 (A431 cell): 10000 nM

C=C(F)C(=O)Nc1cc2c(Nc3ccc(OCC4CC4)c(Cl)c3)ncnc2cc1OCCCN1CCOCC1 [Compound 61]
IC50 [1]: 1000 nM | IC50 (EGFR tyrosine kinase): 4.5 nM | IC50 (A431 cell): 800 nM
